{"source": "patent EP4309647A1", "about": "“G[…] FRACTIONS OF PINE NUT SKIN, METHODS AND USES THEREOF” (Universidade de Aveiro, priority 2022, dated 2024)", "assay": "Effect on cholesterol solubility / bioaccessibility in an in vitro intestinal model (GDCA bile salt micelles, 13C NMR quantification of [4-13C]cholesterol)", "conditions": "cholesterol 3.5 mM, amount equivalent to 3.5 mM β-sitosterol", "method": "In an embodiment, to evaluate the effect of the lipophilic extracts on cholesterol solubility, an in vitro intestinal model with glycodehoxycholic acid (GDCA) at 37 °C and pH 7.4 was used.\nIn an embodiment, solutions of cholesterol labeled with carbon-13 at carbon 4 ([4-^13C]cholesterol) with or without pine nut skin extracts was prepared in azeotropic mixtures of chloroform/methanol (87:13, v/v). Films are formed by solvent evaporation under a stream of nitrogen and heating. To remove possible traces of organic solvents, the films with cholesterol were placed on a desiccator under vacuum during, for example, 30 minutes at room temperature. […]\nIn an embodiment, to evaluate this effect, the bioaccessibility of labelled cholesterol([4-^13C]cholesterol) was measured by ^13C NMR, using an in vitro intestinal model composed of glycodeoxycholic acid bile salt micelles and lipophilic extracts from pine nut skin and from the two separated fractions, added individually.\nIn an embodiment, the quantification of cholesterol by ^13C NMR was possible due to the utilization of an isotopomer of cholesterol fully enriched in ^13C in carbon 4, which has a typical peak at 44 ppm, distinguishable from GDCA resonances. […] This methodology allows to quantify [4-^13C] cholesterol which is emulsified on the bile salt micelles, that is, the available quantity which is likely to be absorbed (bioaccessible). […]"}
{"compound": "CC[C@H](CC[C@@H](C)[C@H]1CC[C@H]2[C@@H]3CC=C4C[C@@H](O)CC[C@]4(C)[C@H]3CC[C@]12C)C(C)C", "note": "[β-Sitosterol]", "values": [{"measurement": "cholesterol emulsified (solubilized, bioaccessible)", "setting": "GDCA 50 mM", "value": 1.6, "unit": "mM"}, {"measurement": "reduction of cholesterol solubility / bioaccessability relatively to the control", "setting": "control = GDCA and [4-13C]cholesterol", "value": 49, "unit": "%"}]}
